Measurements taken from US20170349540A1, “HISTONE DEACETYLASE INHIBITORS” (The General Hospital Corporation, priority 2014, published 2017).

Key:
HDAC = experiment: In vivo PET imaging: blocking of whole brain uptake of the radiolabeled compound of Example 3; design: species or system rat
Procedure: Male Sprague-Dawley rats were utilized in pairs, anesthetized with inhalational isoflurane (Forane) at 3% in a carrier of 1.5-2 L/min medical oxygen and maintained at 2% isoflurane for the duration of the scan. The rats were arranged head-to-head in a Triumph Trimodality PET/CT/SPECT scanner (Gamma Medica, Northridge, Calif.). Rats were injected standard references or vehicle via a lateral tail vein catheterization at the start of Positron Emission Tomography (PET) acquisition. Dynamic PET acquisition lasted for 60 min and was followed by computed tomography (CT) for anatomic co-registration. PET data were reconstructed using a 3D-MLEM method resulting in a full width at half-maximum resolution of 1 mm. Reconstructed images were exported from the scanner in DICOM format along with an anatomic CT for rodent studies. These files were imported to PMOD (PMOD Technologies, Ltd.) and manually coregistered using six degrees of freedom.
Volumes of interest (VOIs) were drawn manually as spheres in brain regions guided by high resolution CT structural images and summed PET data, with a radius no less than 1 mm to minimize partial volume effects. Time-activity curves (TACs) were exported in terms of decay corrected activity per unit volume at specified time points with gradually increasing intervals. The TACs were expressed as percent injected dose per unit volume for analysis.
Summed PET images following injection with the ^11C radiolabeled (E)-3-(4-((((1r,3R,5S)-adamantan-1-ylmethyl)(methyl)amino)methyl)phenyl)-N-hydroxyacrylamide (Example 3) at baseline or after 5 minutes pretreatment with 0.5 or 2.0 mg/kg unlabeled (E)-3-(4-((((1 r,3R,5 S)-adamantan-1-ylmethyl) (methyl)amino)methyl)phenyl)-N-hydroxyacrylamide illustrate brain uptake and self-blocking, as shown in FIG. 1A. Whole-brain tracer uptake levels, normalized to uptake at 10 min, were altered by 10-40% in self-blocking experiments with 5 min pretreatment with 1.0 μg-2.0 mg/kg unlabeled (E)-3-(4-((((1r,3R,5S)-adamantan-1-ylmethyl) (methyl)amino)methyl)phenyl)-N-hydroxyacrylamide, as shown in FIGS. 1B and 1C. This quantification provides a means to measure occupancy of HDAC targets on the basis of blocked binding of the radiolabeled compound of Example 3.
Whole brain uptake of the radiotracer of Example 3 was measured 4 h after acute systemic treatment.

[1] = Intraperitoneal pharmacokinetics and brain distribution assay; assay type: in vivo, male Sprague Dawley rats; conditions: single i.p. dose 1 mg/kg
Procedure: Healthy male Sprague Dawley rats (8-12 weeks old) weighing between 200 to 250 g were procured from Tina Labs, Hyderabad, India. Three rats were housed in each cage. Temperature and humidity were maintained at 22±3° C. and 40-70%, respectively and illumination was controlled to give a sequence of 12 hr light and 12 hr dark cycle. Temperature and humidity were recorded by auto-controlled data logger system. All the animals were provided laboratory rodent diet (Vetcare India Pvt. Ltd, Bengaluru) ad libitum. Reverse osmosis water treated with ultraviolet light was provided ad libitum.
Twenty one male Sprague Dawley rats were intraperitoneally administered with a solution formulation of the compound of Example 2 prepared in 10% DMSO, 10% Tween 80, and 80% normal saline. The blood samples were collected from a set of three rats at each time point in labeled micro centrifuge tube containing K2EDTA solution as anticoagulant. Plasma samples were separated by centrifugation of whole blood and stored at below −70° C. until bioanalysis. After collection of blood samples at each time point animals, were humanely euthanized by CO2 and the brain was collected. Brain samples were homogenized using ice-cold phosphate buffer saline (pH=7.4) and homogenates were stored at below −70° C. until analysis. Total homogenate volume was three times the brain weight. All samples were processed for analysis by protein precipitation using acetonitrile and analyzed with fit-for-purpose LC-MS/MS method (Lower Limits of Quantitation (LLOQ)=2.01 ng/mL in plasma and 1.01 ng/mL in brain). Pharmacokinetic parameters were calculated using the non-compartmental analysis tool of Phoenix WinNonlin® (Version 6.3).
The intraperitoneal solution formulation concentration was 0.1 mg/mL. The weighed quantity (7.02 mg) of (E)-3-(4-((((3r,5r,7r)-adamantan-1-ylmethyl)(methyl)amino)methyl)phenyl)-N-(2-aminophenyl)acrylamide was added in a labeled bottle. DMSO (7.02 mL) was added to dissolve the compound, followed by addition of Tween 80 (7.02 mL) and the solution was mixed by vortexing. Next, normal saline was added (56.16 mL) and the resulting solution was mixed by vortexing. The solution formulation was sonicated for 2 minutes to obtain a clear and transparent solution.
The blood samples were collected from set of three rats at each time point in labeled micro centrifuge tube containing K2EDTA solution as anticoagulant at time points of 0.08, 0.5, 1, 2, 4, 6, 8 & 24 hours. […]
Concentrations of the compound of Example 2 in rat plasma and brain samples were analyzed with fit-for-purpose by LC-MS/MS method. […] Following centrifugation, 100 µL of clear supernatant was transferred a 96-well plate and analyzed using LC-MS/MS. […]

CN(Cc1ccc(/C=C/C(=O)Nc2ccccc2N)cc1)CC12CC3CC(CC(C3)C1)C2 [Example 2, (E)-3-(4-((((3r,5r,7r)-adamantan-1-ylmethyl)(methyl)amino)methyl)phenyl)-N-(2-aminophenyl)acrylamide]
block of whole brain tracer uptake (HDAC; 0.1 mg/kg (lowest tested dosage), 4 h after acute systemic treatment, radiotracer of Example 3, relative to vehicle-blocked baseline): 25%
HDAC occupancy in the brain (HDAC; 0.1 mg/kg i.p., based on PET imaging experiments): ~25%
tracer uptake returning to baseline by (time post treatment) (HDAC; 0.1 mg/kg, radiotracer of Example 3): ≤ 7.5 h
Kp ([1]; male, Sprague Dawley, rat, brain/plasma, ip, read-out: Brain-to-plasma exposure ratio): 20.6
Tmax ([1]; male, Sprague Dawley, rat, plasma, ip): 30 min
brain concentrations quantifiable up to ([1]; brain (2 animals), LLOQ 1.01 ng/mL): ≤ 24 h
plasma concentrations quantifiable up to ([1]; plasma (2 animals), LLOQ 2.01 ng/mL): up to 8 h
